The source of these data is patent publication US20230123334A1, “AMINO LIPID COMPOUND, PREPARATION METHOD THEREFOR, AND APPLICATION THEREOF” (SHENZHEN SHENXIN BIOTECHNOLOGY CO., LTD., priority 2020, published 2023).

In this test the test system is HEK293 cells. Put plainly: Preliminary screening as mRNA vectors, EGFP mRNA transfection of HEK293 cells. The class given is cell-based. The following applies: EGFP mRNA 50 ng per well, 96-well plates; percentage of GFP fluorescent cells relative to total number of cells (Hoechst). A digest of the protocol:
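HEK293 cells in DMEM plus 10% FBS transfected in 96-well format with 50 ng EGFP mRNA per well; Lipofectamine2000 served as positive control. Read-out is the percentage of GFP-fluorescent cells among total cells, counted by Hoechst nuclear stain.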
For the compound `CCCCCCCCCSc1nc(NCCCCCC)nc(NCCCN2CCN(C)CC2)n1` [Compound D9S9N6], the “Absolute mRNA transfection efficiency in HEK293 cells” value (“Absolute mRNA transfection efficiency” for short) worked out at 1.8%.

`CCCCCCCCCSc1nc(NCCCCCCC)nc(NCCCN2CCN(C)CC2)n1` [Compound D9S9N7]: the “Absolute mRNA transfection efficiency” value was 2.8%.

As for `CCCCCCCCCSc1nc(NCCCCCCCC)nc(NCCCN2CCN(C)CC2)n1` [Compound D9S9N8], the “Absolute mRNA transfection efficiency” value is listed as 9.2%.

In the case of `CCCCCCCCCNc1nc(NCCCN2CCN(C)CC2)nc(SCCCCCCCCC)n1` [Compound D9S9N9], the “Absolute mRNA transfection efficiency” value was determined as 76.1%.

For `CCCCCCCCCCCNc1nc(NCCCN2CCN(C)CC2)nc(SCCCCCCCCC)n1` [Compound D9S9N11], the “Absolute mRNA transfection efficiency” value is listed as 49.2%.

Turning to `CCCCCCCCCCCCNc1nc(NCCCN2CCN(C)CC2)nc(SCCCCCCCCC)n1` [Compound D9S9N12], the “Absolute mRNA transfection efficiency” value is 36.0%.

Turning to `CCCCCCCCCCCCCNc1nc(NCCCN2CCN(C)CC2)nc(SCCCCCCCCC)n1` [Compound D9S9N13], the “Absolute mRNA transfection efficiency” value came to 20.0%.

On to `CCCCCCCCCCCCCCCNc1nc(NCCCN2CCN(C)CC2)nc(SCCCCCCCCC)n1` [Compound D9S9N15], for which the “Absolute mRNA transfection efficiency” value worked out at 6.3%.

For the compound `CCCCCCCCCCCCCCCCNc1nc(NCCCN2CCN(C)CC2)nc(SCCCCCCCCC)n1` [Compound D9S9N16], the “Absolute mRNA transfection efficiency” value was 16.7%.

As to `CCCCCCCCCCCCCCCCCCNc1nc(NCCCN2CCN(C)CC2)nc(SCCCCCCCCC)n1` [Compound D9S9N18], the “Absolute mRNA transfection efficiency” value came to 14.5%.

Take `CCCCCCCCCCSc1nc(NCCCCCC)nc(NCCCN2CCN(C)CC2)n1` [Compound D9S10N6]: the “Absolute mRNA transfection efficiency” value is on record as 1.1%.

With `CCCCCCCCCCSc1nc(NCCCCCCC)nc(NCCCN2CCN(C)CC2)n1` [Compound D9S10N7], the “Absolute mRNA transfection efficiency” value was 0.8%.

As for `CCCCCCCCCCSc1nc(NCCCCCCCC)nc(NCCCN2CCN(C)CC2)n1` [Compound D9S10N8], the “Absolute mRNA transfection efficiency” value was determined as 5.4%.

As to `CCCCCCCCCCSc1nc(NCCCCCCCCC)nc(NCCCN2CCN(C)CC2)n1` [Compound D9S10N9], the “Absolute mRNA transfection efficiency” value turned out to be 10.5%.

With `CCCCCCCCCCCNc1nc(NCCCN2CCN(C)CC2)nc(SCCCCCCCCCC)n1` [Compound D9S10N11], the “Absolute mRNA transfection efficiency” value was found to be 11.3%.

In the case of `CCCCCCCCCCCCNc1nc(NCCCN2CCN(C)CC2)nc(SCCCCCCCCCC)n1` [Compound D9S10N12], the “Absolute mRNA transfection efficiency” value amounted to 6.0%.

For `CCCCCCCCCCCCCNc1nc(NCCCN2CCN(C)CC2)nc(SCCCCCCCCCC)n1` [Compound D9S10N13], the “Absolute mRNA transfection efficiency” value is on record as 2.7%.

As for `CCCCCCCCCCCCCCCNc1nc(NCCCN2CCN(C)CC2)nc(SCCCCCCCCCC)n1` [Compound D9S10N15], the “Absolute mRNA transfection efficiency” value is 5.4%.

For `CCCCCCCCCCCCCCCCNc1nc(NCCCN2CCN(C)CC2)nc(SCCCCCCCCCC)n1` [Compound D9S10N16], the “Absolute mRNA transfection efficiency” value is 13.6%.

Consider `CCCCCCCCCCCCCCCCCCNc1nc(NCCCN2CCN(C)CC2)nc(SCCCCCCCCCC)n1` [Compound D9S10N18], for which the “Absolute mRNA transfection efficiency” value was 9.0%.

`CCCCCCCCCCCSc1nc(NCCCCCC)nc(NCCCN2CCN(C)CC2)n1` [Compound D9S11N6]: the “Absolute mRNA transfection efficiency” value was found to be 12.2%.

Regarding `CCCCCCCCCCCSc1nc(NCCCCCCC)nc(NCCCN2CCN(C)CC2)n1` [Compound D9S11N7], the “Absolute mRNA transfection efficiency” value worked out at 10.5%.

On to `CCCCCCCCCCCSc1nc(NCCCCCCCC)nc(NCCCN2CCN(C)CC2)n1` [Compound D9S11N8], for which the “Absolute mRNA transfection efficiency” value worked out at 37.6%.

With `CCCCCCCCCCCSc1nc(NCCCCCCCCC)nc(NCCCN2CCN(C)CC2)n1` [Compound D9S11N9], the “Absolute mRNA transfection efficiency” value amounted to 60.3%.

With `CCCCCCCCCCCNc1nc(NCCCN2CCN(C)CC2)nc(SCCCCCCCCCCC)n1` [Compound D9S11N11], the “Absolute mRNA transfection efficiency” value is 24.5%.

Consider `CCCCCCCCCCCCNc1nc(NCCCN2CCN(C)CC2)nc(SCCCCCCCCCCC)n1` [Compound D9S11N12], for which the “Absolute mRNA transfection efficiency” value was 21.7%.

For `CCCCCCCCCCCCCNc1nc(NCCCN2CCN(C)CC2)nc(SCCCCCCCCCCC)n1` [Compound D9S11N13], the “Absolute mRNA transfection efficiency” value worked out at 9.4%.

As for `CCCCCCCCCCCCCCCNc1nc(NCCCN2CCN(C)CC2)nc(SCCCCCCCCCCC)n1` [Compound D9S11N15], the “Absolute mRNA transfection efficiency” value is on record as 15.7%.

Regarding `CCCCCCCCCCCCCCCCNc1nc(NCCCN2CCN(C)CC2)nc(SCCCCCCCCCCC)n1` [Compound D9S11N16], the “Absolute mRNA transfection efficiency” value is given as 3.9%.

With `CCCCCCCCCCCCCCCCCCNc1nc(NCCCN2CCN(C)CC2)nc(SCCCCCCCCCCC)n1` [Compound D9S11N18], the “Absolute mRNA transfection efficiency” value stood at 14.9%.

For `CCCCCCCCCCCCSc1nc(NCCCCCC)nc(NCCCN2CCN(C)CC2)n1` [Compound D9S12N6], the “Absolute mRNA transfection efficiency” value is 0.2%.

For the compound `CCCCCCCCCCCCSc1nc(NCCCCCCC)nc(NCCCN2CCN(C)CC2)n1` [Compound D9S12N7], the “Absolute mRNA transfection efficiency” value is listed as 0.6%.

As for `CCCCCCCCCCCCSc1nc(NCCCCCCCC)nc(NCCCN2CCN(C)CC2)n1` [Compound D9S12N8], the “Absolute mRNA transfection efficiency” value amounted to 20.1%.

`CCCCCCCCCCCCSc1nc(NCCCCCCCCC)nc(NCCCN2CCN(C)CC2)n1` [Compound D9S12N9]: the “Absolute mRNA transfection efficiency” value worked out at 25.6%.

Turning to `CCCCCCCCCCCCSc1nc(NCCCCCCCCCCC)nc(NCCCN2CCN(C)CC2)n1` [Compound D9S12N11], the “Absolute mRNA transfection efficiency” value is listed as 3.3%.

Turning to `CCCCCCCCCCCCNc1nc(NCCCN2CCN(C)CC2)nc(SCCCCCCCCCCCC)n1` [Compound D9S12N12], the “Absolute mRNA transfection efficiency” value worked out at 0.9%.

`CCCCCCCCCCCCCNc1nc(NCCCN2CCN(C)CC2)nc(SCCCCCCCCCCCC)n1` [Compound D9S12N13]: the “Absolute mRNA transfection efficiency” value stood at 1.0%.

Consider `CCCCCCCCCCCCCCCNc1nc(NCCCN2CCN(C)CC2)nc(SCCCCCCCCCCCC)n1` [Compound D9S12N15], for which the “Absolute mRNA transfection efficiency” value came to 0.0%.

Consider `CCCCCCCCCCCCCCCCNc1nc(NCCCN2CCN(C)CC2)nc(SCCCCCCCCCCCC)n1` [Compound D9S12N16], for which the “Absolute mRNA transfection efficiency” value was 1.2%.

`CCCCCCCCCCCCCCCCCCNc1nc(NCCCN2CCN(C)CC2)nc(SCCCCCCCCCCCC)n1` [Compound D9S12N18]: the “Absolute mRNA transfection efficiency” value is on record as 0.2%.

Turning to `CCCCCCCCCCCCCCSc1nc(NCCCCCC)nc(NCCCN2CCN(C)CC2)n1` [Compound D9S14N6], the “Absolute mRNA transfection efficiency” value was found to be 27.2%.

For the compound `CCCCCCCCCCCCCCSc1nc(NCCCCCCC)nc(NCCCN2CCN(C)CC2)n1` [Compound D9S14N7], the “Absolute mRNA transfection efficiency” value is on record as 50.1%.

`CCCCCCCCCCCCCCSc1nc(NCCCCCCCC)nc(NCCCN2CCN(C)CC2)n1` [Compound D9S14N8]: the “Absolute mRNA transfection efficiency” value is 24.8%.

Turning to `CCCCCCCCCCCCCCSc1nc(NCCCCCCCCC)nc(NCCCN2CCN(C)CC2)n1` [Compound D9S14N9], the “Absolute mRNA transfection efficiency” value amounted to 23.7%.

`CCCCCCCCCCCCCCSc1nc(NCCCCCCCCCCC)nc(NCCCN2CCN(C)CC2)n1` [Compound D9S14N11]: the “Absolute mRNA transfection efficiency” value is 15.6%.

For the compound `CCCCCCCCCCCCCCSc1nc(NCCCCCCCCCCCC)nc(NCCCN2CCN(C)CC2)n1` [Compound D9S14N12], the “Absolute mRNA transfection efficiency” value was 8.0%.

In the case of `CCCCCCCCCCCCCCSc1nc(NCCCCCCCCCCCCC)nc(NCCCN2CCN(C)CC2)n1` [Compound D9S14N13], the “Absolute mRNA transfection efficiency” value is 4.8%.

Regarding `CCCCCCCCCCCCCCCNc1nc(NCCCN2CCN(C)CC2)nc(SCCCCCCCCCCCCCC)n1` [Compound D9S14N15], the “Absolute mRNA transfection efficiency” value was determined as 0.5%.

Turning to `CCCCCCCCCCCCCCCCNc1nc(NCCCN2CCN(C)CC2)nc(SCCCCCCCCCCCCCC)n1` [Compound D9S14N16], the “Absolute mRNA transfection efficiency” value stood at 0.8%.

On to `CCCCCCCCCCCCCCCCCCNc1nc(NCCCN2CCN(C)CC2)nc(SCCCCCCCCCCCCCC)n1` [Compound D9S14N18], for which the “Absolute mRNA transfection efficiency” value was determined as 0.3%.

Turning to `CCCCCCCCCCCCCCCSc1nc(NCCCCCC)nc(NCCCN2CCN(C)CC2)n1` [Compound D9S15N6], the “Absolute mRNA transfection efficiency” value stood at 30.7%.

As for `CCCCCCCCCCCCCCCSc1nc(NCCCCCCC)nc(NCCCN2CCN(C)CC2)n1` [Compound D9S15N7], the “Absolute mRNA transfection efficiency” value is 15.9%.

As for `CCCCCCCCCCCCCCCSc1nc(NCCCCCCCC)nc(NCCCN2CCN(C)CC2)n1` [Compound D9S15N8], the “Absolute mRNA transfection efficiency” value is 10.8%.

With `CCCCCCCCCCCCCCCSc1nc(NCCCCCCCCC)nc(NCCCN2CCN(C)CC2)n1` [Compound D9S15N9], the “Absolute mRNA transfection efficiency” value was determined as 18.5%.

For the compound `CCCCCCCCCCCCCCCSc1nc(NCCCCCCCCCCC)nc(NCCCN2CCN(C)CC2)n1` [Compound D9S15N11], the “Absolute mRNA transfection efficiency” value was 9.2%.

Regarding `CCCCCCCCCCCCCCCSc1nc(NCCCCCCCCCCCC)nc(NCCCN2CCN(C)CC2)n1` [Compound D9S15N12], the “Absolute mRNA transfection efficiency” value stood at 4.4%.

In the case of `CCCCCCCCCCCCCCCSc1nc(NCCCCCCCCCCCCC)nc(NCCCN2CCN(C)CC2)n1` [Compound D9S15N13], the “Absolute mRNA transfection efficiency” value is 2.0%.

On to `CCCCCCCCCCCCCCCNc1nc(NCCCN2CCN(C)CC2)nc(SCCCCCCCCCCCCCCC)n1` [Compound D9S15N15], for which the “Absolute mRNA transfection efficiency” value turned out to be 0.2%.

Consider `CCCCCCCCCCCCCCCCNc1nc(NCCCN2CCN(C)CC2)nc(SCCCCCCCCCCCCCCC)n1` [Compound D9S15N16], for which the “Absolute mRNA transfection efficiency” value was determined as 2.7%.
